US4336389A, “2-Substituted-4-aryl-5-thiazolecarboxylic acids and their derivatives as safening agents” (Monsanto Company, priority 1978, dated 1982)
Where a name gives a salt, the structure may show the parent alone.

Assays:
Format in all cases: in vivo
[1] = test system: rice; experiment: Safening effect against butachlor injury to pre-soaked rice, soil surface application, flooded pots (Example 16, Table II); parameters: key: herbicide injury alone + safener injury alone (max 100) minus combined injury; details: safening agent 0.56 kg/h, ~21 days, mean of two replicates
Experimental: (§1) A good grade of top soil is placed in a container and compacted to a depth of approximately 1.27 cm. from the top of said container. A predetermined number of rice seeds to be tested are placed on top of the soil. A quantity of soil sufficient to substantially fill the container is measured and placed in a second container. A measured quantity of the safening agent dispersed or dissolved in a suitable carrier is applied to the soil in the second container. A measured quantity of butachlor dispersed or dissolved in a suitable carrier is then sprayed on the soil already treated with the safening agent. The soil containing the safening agent and herbicide is thoroughly mixed. This mixing is sometimes referred to as incorporation of the herbicide and safening agent into the soil. The mixing or incorporation provides a substantially uniform distribution of the safening agent and herbicide throughout the soil. The seeds are covered with the soil containing the safening agent and herbicide and the pans are leveled. The pans are then placed on a sand bench in the greenhouse and watered from below as needed. The plants are observed at the end of approximately 21 days and the results in terms of percent inhibition of each seed lot are recorded. For each test series a pan of plants is also prepared containing no herbicide and no safening agent as a control. Additionally, for each test, a pan of plants is prepared with soil covering the seed containing no herbicide and only the measured amount of safening agent being incorporated into the soil covering the seeds to ascertain any herbicidal effect of the safening agent alone. For each series of tests the herbicidal effect of the herbicide is observed from pans of plants treated with the same quantity of herbicide alone. The "safening effect" is determined by adding the hericidal effect of the herbicide when applied alone to the herbicidal effect of the safening agent when applied alone (in no instance, however, will this sum be greater than 100) and substracting from that the herbicidal effect obtained when the herbicide and safening agent are incorporated into the soil as discussed above.
A good grade of top soil is placed in a plastic pot. A measured quantity of the safening agent dispersed or dissolved in a suitable carrier is sprayed on the soil surface. A measured quantity of butachlor herbicide dissolved in a solvent is sprayed on the soil surface. Presoaked rice is seeded into the pots that were previously flooded with water and the water level lowered below the soil surface for one week. The pots are flooded at least up to the soil surface for the duration of the test. The plants are observed at the end of approximately 21 days and the results in terms of the percent inhibition of rice is recorded. As in Example 15, for each test pots are prepared containing soil treated only with butachlor. For each test, pots are also prepared containing soil treated only with the safening agent. Pots are also prepared in which the soil is not treated with either the herbicide or the safening agent. The safening effect is determined in accordance with Example 15.
Table II summarizes the results obtained when the compounds of the invention were tested in accordance with the procedure of Example 16.

[2] = test system: rice; experiment: Safening effect against butachlor injury to rice, safening agent and herbicide incorporated in soil (Example 15, Table I); parameters: key: herbicide-alone + safener-alone effect (max 100) minus combined effect; details: safening agent 8.96 kg/h, ~21 days
Experimental: as §1
Table I summarizes the results obtained when the compounds of the invention were tested in accordance with the procedure of Example 15.

[3] = test system: rice; experiment: Inhibition of rice, safening agent and butachlor applied to soil surface, flooded pots (Example 18, Table IV); details: ~21 days, mean of two replicates
Experimental: (§2) 5.08 cm. of a good grade of top soil is placed in a 7.62 cm. deep plastic pot. A predetermined number of barnyard grass seeds are applied to the soil surface. A measured quantity of the safening agent and butachlor dispersed or dissolved in a suitable carrier is applied to the soil surface. Pre-soaked rice is seeded into the pots that were previously flooded with water. The water level is lowered below the soil surface for one week. The pots are flooded just above the soil surface for the duration of the test. The plants are observed at the end of approximately 21 days and the results in terms of percent inhibition recorded. For each test, pots are prepared containing soil treated only with butachlor. For each test, pots are prepared containing soil treated only with the safening agent. Pots are also prepared with untreated soil.

[4] = test system: Barnyard Grass; experiment: Inhibition of barnyard grass, safening agent and butachlor applied to soil surface, flooded pots (Example 18, Table IV); details: ~21 days, mean of two replicates
Experimental: as §2

[5] = test system: rice; experiment: Inhibition of rice by butachlor and safening agent sprayed on soil surface, flooded pots (Example 17, Table III); details: ~21 days, mean of two replicates
Experimental: as §2, with “agent” for “agent and butachlor”, “is sprayed on the soil surface. A measured quantity of butachlor herbicide dissolved in a solvent is sprayed on” for “is applied to”, “one week to allow barnyard grass to emerge.” for “one week.”, “prepared containing” for “prepared with”

[6] = test system: Barnyard Grass; experiment: Inhibition of barnyard grass by butachlor and safening agent sprayed on soil surface, flooded pots (Example 17, Table III); details: ~21 days, mean of two replicates
Experimental: as §2, with “agent” for “agent and butachlor”, “is sprayed on the soil surface. A measured quantity of butachlor herbicide dissolved in a solvent is sprayed on” for “is applied to”, “one week to allow barnyard grass to emerge.” for “one week.”, “prepared containing” for “prepared with”

[7] = safening agent 1.12 kg/h + butachlor 0.07 kg/h
[8] = safening agent 1.12 kg/h + butachlor 0.28 kg/h
[9] = safening agent 1.12 kg/h + butachlor 1.12 kg/h
[10] = safening agent 0.07 kg/h + butachlor 0.07 kg/h
[11] = safening agent 0.07 kg/h + butachlor 0.28 kg/h
[12] = safening agent 0.07 kg/h + butachlor 1.12 kg/h
[13] = safening agent 0.28 kg/h + butachlor 0.07 kg/h
[14] = safening agent 0.28 kg/h + butachlor 0.28 kg/h
[15] = safening agent 0.28 kg/h + butachlor 1.12 kg/h

CCOC(=O)c1sc(Cl)nc1-c1ccc([N+](=O)[O-])cc1 [Example 7, Ethyl 2-Chloro-4-(p-Nitrophenyl)-5Thiazolecarboxylate]
Safening Effect ([1]; butachlor 0.07 kg/h): * (Safening effect between 0 and 20) | Safening Effect ([1]; butachlor 0.28 kg/h): 38 | Safening Effect ([1]; butachlor 1.12 kg/h): * (Safening effect between 0 and 20) | Safening Effect ([2]; butachlor 4.48 kg/h): 25

CCOC(=O)c1sc(Oc2ccc(Cl)cc2Cl)nc1-c1ccccc1 [Ethyl 2-(2',4'-dichlorophenoxy)-4-phenyl-5-thiazolecarboxylate]
% Inhibition, Rice [3, 7]: 15% | % Inhibition, Rice [3, 8]: 88% | % Inhibition, Rice [3, 9]: 99% | % Inhibition, Rice ([3]; safening agent alone 1.12 kg/h): 0% | % Inhibition, Barnyard Grass [4, 7]: 83% | % Inhibition, Barnyard Grass [4, 8]: 98% | % Inhibition, Barnyard Grass [4, 9]: 100% | % Inhibition, Barnyard Grass ([4]; safening agent alone 1.12 kg/h): 0%

CCOC(=O)c1sc(Cl)nc1-c1cccc(C(F)(F)F)c1 [Example 2, Ethyl 2-Chloro-4-m-Trifluoromethylphenyl-5-thiazolecarboxylate]
Safening Effect ([1]; butachlor 0.07 kg/h): 68 | Safening Effect ([1]; butachlor 0.28 kg/h): 26 | Safening Effect ([1]; butachlor 1.12 kg/h): * (Safening effect between 0 and 20) | Safening Effect ([2]; butachlor 4.48 kg/h): 50

CCOC(=O)c1sc(OCC)nc1-c1cccc(C(F)(F)F)c1 [Example 9, Ethyl 2-Ethoxy-4-(m-Trifluoromethylphenyl)-5-Thiazolecarboxylate]
Safening Effect ([2]; butachlor 4.48 kg/h): 20

O=C(Cl)c1sc(Cl)nc1-c1ccccc1 [Example 12, 2-Chloro-4-Phenyl-5-Thiazolecarbonyl Chloride]
Safening Effect ([1]; butachlor 0.07 kg/h): 35 | Safening Effect ([1]; butachlor 0.28 kg/h): 80 | Safening Effect ([1]; butachlor 1.12 kg/h): 62 | Safening Effect ([2]; butachlor 4.48 kg/h): 50

COC(=O)c1sc(Cl)nc1-c1ccccc1 [Example 13, Methyl 2-Chloro-4-Phenyl-5-Thiazolecarboxylate]
Safening Effect ([2]; butachlor 4.48 kg/h): 30

CCOC(=O)c1sc(Cl)nc1-c1ccccc1Cl [Example 5, Ethyl 2-Chloro-4-(o-Chlorophenyl)-5-Thiazolecarboxylate]
Safening Effect ([2]; butachlor 6.72 kg/h): 65

CCOC(=O)c1sc(Oc2ccc(Cl)cc2Cl)nc1-c1cccc(C(F)(F)F)c1 [Example 10, Ethyl 2-(2',4'-Dichlorophenoxy)-4-(m-Trifluoromethylphenyl)-5-Thiazolecarboxylate]
Safening Effect ([1]; butachlor 0.07 kg/h): * (Safening effect between 0 and 20) | Safening Effect ([1]; butachlor 0.28 kg/h): * (Safening effect between 0 and 20) | Safening Effect ([1]; butachlor 1.12 kg/h): * (Safening effect between 0 and 20) | Safening Effect ([2]; butachlor 4.48 kg/h): 43

O=C(O)c1sc(Cl)nc1-c1ccccc1 [triethanolamine salt of 2-chloro-4-phenyl-5-thiazolecarboxylic acid]
% Inhibition, Rice [3, 7]: 0% | % Inhibition, Rice [3, 8]: 20% | % Inhibition, Rice [3, 9]: 60% | % Inhibition, Rice ([3]; safening agent alone 1.12 kg/h): 0% | % Inhibition, Barnyard Grass [4, 7]: 88% | % Inhibition, Barnyard Grass [4, 8]: 99% | % Inhibition, Barnyard Grass [4, 9]: 100% | % Inhibition, Barnyard Grass ([4]; safening agent alone 1.12 kg/h): 0%

CCOC(=O)c1sc(Cl)nc1-c1cccc(C)c1 [Example 6, Ethyl 2-Chloro-4-(m-Tolyl)-5-Thiazolecarboxylate]
Safening Effect ([2]; butachlor 6.72 kg/h): 65

CCCOC(=O)c1sc(Cl)nc1-c1ccccc1 [Example 14, n-Propyl 2-Chloro-4-Phenyl-5-Thiazolecarboxylate]
Safening Effect ([2]; butachlor 4.48 kg/h): 20

CCOC(=O)c1sc(Cl)nc1-c1ccc(F)cc1 [Example 3, Ethyl 2-Chloro-4-(p-Fluorophenyl)-5-Thiazolecarboxylate]
Inhibition, Rice [5, 10]: 0% | Inhibition, Rice [5, 11]: 5% | Inhibition, Rice [5, 12]: 70% | Inhibition, Rice [5, 13]: 0% | Inhibition, Rice [5, 14]: 5% | Inhibition, Rice [5, 15]: 58% | Inhibition, Rice [5, 7]: 0% | Inhibition, Rice [5, 8]: 0% | Inhibition, Rice [5, 9]: 43% | Inhibition, Rice ([5]; safening agent alone 0.07 kg/h): 0% | Inhibition, Rice ([5]; safening agent alone 0.28 kg/h): 0% | Inhibition, Rice ([5]; safening agent alone 1.12 kg/h): 0% | Safening Effect ([1]; butachlor 0.07 kg/h): 30 | Safening Effect ([1]; butachlor 0.28 kg/h): 73 | Safening Effect ([1]; butachlor 1.12 kg/h): 62 | Inhibition, Barnyard Grass [6, 10]: 97% | Inhibition, Barnyard Grass [6, 11]: 99% | Inhibition, Barnyard Grass [6, 12]: 100% | Inhibition, Barnyard Grass [6, 13]: 92% | Inhibition, Barnyard Grass [6, 14]: 100% | Inhibition, Barnyard Grass [6, 15]: 100% | Inhibition, Barnyard Grass [6, 7]: 92% | Inhibition, Barnyard Grass [6, 8]: 100% | Inhibition, Barnyard Grass [6, 9]: 100% | Inhibition, Barnyard Grass ([6]; safening agent alone 0.07 kg/h): 0% | Inhibition, Barnyard Grass ([6]; safening agent alone 0.28 kg/h): 0% | Inhibition, Barnyard Grass ([6]; safening agent alone 1.12 kg/h): 0% | Safening Effect ([2]; butachlor 6.72 kg/h): 65

O=C(O)c1sc(Cl)nc1-c1ccccc1 [Example 11, 2-Chloro-4-Phenyl-5-Thiazolecarboxylic Acid]
Safening Effect ([1]; butachlor 0.07 kg/h): * (Safening effect between 0 and 20) | Safening Effect ([1]; butachlor 0.28 kg/h): 63 | Safening Effect ([1]; butachlor 1.12 kg/h): 45 | Safening Effect ([2]; butachlor 4.48 kg/h): 50

CCOC(=O)c1sc(OCC)nc1-c1ccccc1 [Example 8, Ethyl 2-Ethoxy-4-Phenyl-5-Thiazolecarboxylate]
% Inhibition, Rice [3, 7]: 30% | % Inhibition, Rice [3, 8]: 88% | % Inhibition, Rice [3, 9]: 95% | % Inhibition, Rice ([3]; safening agent alone 1.12 kg/h): 0% | % Inhibition, Barnyard Grass [4, 7]: 100% | % Inhibition, Barnyard Grass [4, 8]: 100% | % Inhibition, Barnyard Grass [4, 9]: 100% | % Inhibition, Barnyard Grass ([4]; safening agent alone 1.12 kg/h): 0% | Safening Effect ([2]; butachlor 4.48 kg/h): 75
